Results from ChEMBL document CHEMBL1156040, “Identification and optimisation of novel and selective small molecular weight kinase inhibitors of mTOR” (Bioorg Med Chem Lett, 2009).

Columns and labels:
[1] = target: T1, Serine/threonine-protein kinase mTOR (Homo sapiens, UniProt P42345); test: Inhibition of mTOR kinase in human HeLa cells by ELISA; type: cell-based
[2] = target: Serine-protein kinase ATM (Homo sapiens, UniProt Q13315); test: Inhibition of ATM
[3] = target: Phosphatidylinositol 4,5-bisphosphate 3-kinase catalytic subunit alpha isoform (Homo sapiens, UniProt P42336); test: Inhibition of PI3Kalpha kinase
[4] = Growth inhibition of human U87MG cells; type: functional, U-87MG ATCC; conditions: U-87 MG
[5] = tested on: MDR1 (human); test: Apparent permeability from apical to basolateral side in MDCK2 cells expressing human MDR1 at 10 uM; type: ADME, cell-based, Canis lupus familiaris, MDCK-II; conditions: dog, MDCK-MDR1
[6] = target: T1, Serine/threonine-protein kinase mTOR; test: Inhibition of mTOR kinase in human HeLa cells at 10 uM by ELISA; type: cell-based; set-up: scale not given: the % may be the effect or the level left

Phosphatidylinositol 4,5-bisphosphate 3-kinase catalytic subunit alpha isoform, sequence (P42336 whole entry, canonical isoform): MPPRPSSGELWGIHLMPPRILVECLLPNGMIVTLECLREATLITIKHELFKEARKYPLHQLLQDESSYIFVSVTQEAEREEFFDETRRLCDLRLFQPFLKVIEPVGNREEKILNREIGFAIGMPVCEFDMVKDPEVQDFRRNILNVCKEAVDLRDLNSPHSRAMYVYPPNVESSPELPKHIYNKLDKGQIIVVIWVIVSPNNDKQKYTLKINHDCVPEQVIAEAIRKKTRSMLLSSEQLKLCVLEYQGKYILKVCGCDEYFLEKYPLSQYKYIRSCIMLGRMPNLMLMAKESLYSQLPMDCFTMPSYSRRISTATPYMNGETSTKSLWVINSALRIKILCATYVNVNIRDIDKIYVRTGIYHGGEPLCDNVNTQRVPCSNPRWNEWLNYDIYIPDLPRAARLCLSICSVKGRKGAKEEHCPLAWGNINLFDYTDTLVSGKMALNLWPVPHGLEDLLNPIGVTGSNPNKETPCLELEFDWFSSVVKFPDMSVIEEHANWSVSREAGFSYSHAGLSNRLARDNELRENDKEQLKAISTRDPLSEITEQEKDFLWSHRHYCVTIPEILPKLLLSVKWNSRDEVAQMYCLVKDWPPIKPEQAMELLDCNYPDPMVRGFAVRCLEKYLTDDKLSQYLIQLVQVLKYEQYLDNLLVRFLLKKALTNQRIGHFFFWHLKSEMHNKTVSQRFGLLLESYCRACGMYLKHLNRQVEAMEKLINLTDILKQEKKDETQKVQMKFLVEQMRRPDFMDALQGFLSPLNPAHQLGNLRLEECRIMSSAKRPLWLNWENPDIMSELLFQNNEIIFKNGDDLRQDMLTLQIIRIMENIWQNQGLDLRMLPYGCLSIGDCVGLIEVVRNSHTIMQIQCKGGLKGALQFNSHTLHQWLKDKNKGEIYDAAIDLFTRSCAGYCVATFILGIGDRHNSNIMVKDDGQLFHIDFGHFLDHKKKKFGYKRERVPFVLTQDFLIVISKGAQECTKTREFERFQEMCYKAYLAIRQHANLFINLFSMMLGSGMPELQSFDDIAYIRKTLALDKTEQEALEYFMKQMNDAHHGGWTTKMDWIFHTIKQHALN
Serine-protein kinase ATM, sequence (Q13315 whole entry, canonical isoform): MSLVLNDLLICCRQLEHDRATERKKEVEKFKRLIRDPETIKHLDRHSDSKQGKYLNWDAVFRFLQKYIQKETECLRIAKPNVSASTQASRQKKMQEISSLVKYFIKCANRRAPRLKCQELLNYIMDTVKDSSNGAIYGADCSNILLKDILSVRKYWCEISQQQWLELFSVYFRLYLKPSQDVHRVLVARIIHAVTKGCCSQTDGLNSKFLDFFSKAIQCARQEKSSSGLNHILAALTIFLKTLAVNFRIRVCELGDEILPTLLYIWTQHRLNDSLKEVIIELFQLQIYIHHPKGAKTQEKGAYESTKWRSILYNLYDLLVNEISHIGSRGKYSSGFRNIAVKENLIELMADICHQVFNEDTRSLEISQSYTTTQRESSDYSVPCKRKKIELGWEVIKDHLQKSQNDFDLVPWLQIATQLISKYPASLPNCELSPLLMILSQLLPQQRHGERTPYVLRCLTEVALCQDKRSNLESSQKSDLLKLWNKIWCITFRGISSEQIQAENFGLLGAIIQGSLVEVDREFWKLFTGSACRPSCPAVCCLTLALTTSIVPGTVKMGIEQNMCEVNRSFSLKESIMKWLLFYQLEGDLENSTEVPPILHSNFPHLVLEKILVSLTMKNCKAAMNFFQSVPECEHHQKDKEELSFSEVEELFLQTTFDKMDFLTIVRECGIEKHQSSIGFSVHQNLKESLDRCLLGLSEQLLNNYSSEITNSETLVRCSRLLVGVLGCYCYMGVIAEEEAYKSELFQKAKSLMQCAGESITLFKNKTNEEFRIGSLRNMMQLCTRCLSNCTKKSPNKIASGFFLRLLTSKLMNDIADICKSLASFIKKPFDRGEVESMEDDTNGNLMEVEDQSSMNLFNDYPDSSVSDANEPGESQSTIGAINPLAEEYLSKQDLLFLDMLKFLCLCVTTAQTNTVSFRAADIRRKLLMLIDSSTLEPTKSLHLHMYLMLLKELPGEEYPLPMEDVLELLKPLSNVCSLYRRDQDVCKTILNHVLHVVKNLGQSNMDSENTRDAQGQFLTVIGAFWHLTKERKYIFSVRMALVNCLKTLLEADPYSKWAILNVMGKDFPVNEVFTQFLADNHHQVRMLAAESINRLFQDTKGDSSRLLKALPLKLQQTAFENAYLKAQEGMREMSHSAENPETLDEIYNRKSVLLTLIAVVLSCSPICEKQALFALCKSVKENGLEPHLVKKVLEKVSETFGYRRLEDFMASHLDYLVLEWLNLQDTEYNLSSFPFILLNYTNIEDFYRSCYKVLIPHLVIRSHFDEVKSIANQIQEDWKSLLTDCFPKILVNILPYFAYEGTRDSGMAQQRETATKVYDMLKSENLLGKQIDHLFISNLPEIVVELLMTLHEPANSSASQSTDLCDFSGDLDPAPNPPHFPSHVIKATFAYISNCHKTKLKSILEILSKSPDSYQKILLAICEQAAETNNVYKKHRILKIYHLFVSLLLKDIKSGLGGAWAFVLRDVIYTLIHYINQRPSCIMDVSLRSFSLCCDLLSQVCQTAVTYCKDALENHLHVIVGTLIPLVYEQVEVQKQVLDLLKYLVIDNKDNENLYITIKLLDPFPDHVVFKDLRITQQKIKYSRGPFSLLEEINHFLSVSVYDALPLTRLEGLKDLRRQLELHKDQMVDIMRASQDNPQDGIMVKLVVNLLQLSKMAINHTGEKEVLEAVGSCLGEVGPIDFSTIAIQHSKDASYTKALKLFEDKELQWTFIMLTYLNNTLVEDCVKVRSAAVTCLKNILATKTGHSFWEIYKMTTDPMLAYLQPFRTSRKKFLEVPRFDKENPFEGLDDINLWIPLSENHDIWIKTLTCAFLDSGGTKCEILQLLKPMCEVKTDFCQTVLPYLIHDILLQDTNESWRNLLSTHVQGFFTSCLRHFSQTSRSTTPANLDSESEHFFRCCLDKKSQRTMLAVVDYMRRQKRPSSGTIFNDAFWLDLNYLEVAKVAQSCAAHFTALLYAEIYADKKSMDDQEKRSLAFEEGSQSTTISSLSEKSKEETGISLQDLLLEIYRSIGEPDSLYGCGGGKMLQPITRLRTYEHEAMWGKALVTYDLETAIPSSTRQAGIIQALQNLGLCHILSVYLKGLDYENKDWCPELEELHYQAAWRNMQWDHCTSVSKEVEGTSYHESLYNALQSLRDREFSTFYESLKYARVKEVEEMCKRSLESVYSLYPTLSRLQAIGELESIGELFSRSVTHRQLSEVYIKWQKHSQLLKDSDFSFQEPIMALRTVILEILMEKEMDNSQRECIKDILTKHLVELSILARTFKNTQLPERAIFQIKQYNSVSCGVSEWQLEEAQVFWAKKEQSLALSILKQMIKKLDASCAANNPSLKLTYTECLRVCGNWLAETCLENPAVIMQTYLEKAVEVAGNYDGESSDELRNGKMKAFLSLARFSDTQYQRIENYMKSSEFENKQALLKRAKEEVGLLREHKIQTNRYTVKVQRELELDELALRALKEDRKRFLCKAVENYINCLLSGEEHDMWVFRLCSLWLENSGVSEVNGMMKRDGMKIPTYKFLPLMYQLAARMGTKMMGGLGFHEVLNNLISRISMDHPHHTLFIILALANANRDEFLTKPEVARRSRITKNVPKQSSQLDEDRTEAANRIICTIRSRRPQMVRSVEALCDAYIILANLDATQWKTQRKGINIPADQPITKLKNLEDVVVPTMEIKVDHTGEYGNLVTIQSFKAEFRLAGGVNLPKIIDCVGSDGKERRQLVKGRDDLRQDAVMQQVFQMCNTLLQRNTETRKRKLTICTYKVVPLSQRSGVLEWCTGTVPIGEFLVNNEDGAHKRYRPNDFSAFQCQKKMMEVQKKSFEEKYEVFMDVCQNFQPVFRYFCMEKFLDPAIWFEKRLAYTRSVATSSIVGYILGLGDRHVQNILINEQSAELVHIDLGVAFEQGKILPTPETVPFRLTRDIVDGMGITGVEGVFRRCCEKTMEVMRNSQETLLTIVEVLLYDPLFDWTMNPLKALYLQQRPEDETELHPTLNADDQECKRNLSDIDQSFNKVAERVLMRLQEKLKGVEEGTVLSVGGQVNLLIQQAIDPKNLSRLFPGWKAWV

Row | SMILES | IC50 [1] [µM] | IC50 [3] [µM] | GI50 [4] [µM] | further results
1 | COc1cc(/C=N/Nc2nc(N3CCOCC3)nc(N3CCOCC3)n2)cc(OC)c1O | 0.27 | > 10 | – | IC50 [2]: > 10 µM
2 | COc1cc(-c2cn(-c3nc(N4CCOCC4)nc(N4CCOCC4)n3)cn2)cc(OC)c1O | – | > 10 | 24 | –
3 | COc1cc(-c2csc(-c3ccnc(N4CCOCC4)n3)n2)cc(OC)c1O | 0.18 | > 10 | 21 | –
4 | Oc1cccc(-c2ccc(-c3cc(N4CCOCC4)nc(N4CCOCC4)n3)o2)c1 | – | – | – | Papp A→B at 10 µM [5]: 2.2 ×10⁻⁶ cm/s
5 | COc1cc(-c2cnn(-c3ccnc(N4CCOCC4)n3)c2)cc(OC)c1O | – | – | – | Activity [6]: < 50%
6 | COc1cc(-c2ccc(-c3ccnc(N4CCOCC4)n3)s2)cc(OC)c1O | – | – | – | Activity [6]: < 50%
7 | COc1cc(-c2ccc(-c3cc(N4CCOCC4)nc(N4CCOCC4)n3)o2)cc(OC)c1O | 0.023 | > 10 | 16 | –
8 | OCc1cccc(-c2ccc(-c3cc(N4CCOCC4)nc(N4CCOCC4)n3)o2)c1 | – | – | – | Papp A→B at 10 µM [5]: 33 ×10⁻⁶ cm/s

The next lines start with results.

Row | IC50 [1] [µM] | IC50 [3] [µM] | SMILES | GI50 [4] [µM] | further results
9 | > 10 | – | c1cc2cc(-c3ccc(-c4cc(N5CCOCC5)nc(N5CCOCC5)n4)o3)ccc2[nH]1 | – | –
10 | 0.052 | > 10 | COc1cc(-c2ccc(-c3ccnc(N4CCOCC4)n3)o2)cc(OC)c1O | 3.7 | –
